The compounds below were run against T1, Protein-glutamine gamma-glutamyltransferase (Cavia porcellus, UniProt Q7M0F8) (assay: Inhibition of guinea pig liver transglutaminase).
T1 sequence (Q7M0F8 whole entry): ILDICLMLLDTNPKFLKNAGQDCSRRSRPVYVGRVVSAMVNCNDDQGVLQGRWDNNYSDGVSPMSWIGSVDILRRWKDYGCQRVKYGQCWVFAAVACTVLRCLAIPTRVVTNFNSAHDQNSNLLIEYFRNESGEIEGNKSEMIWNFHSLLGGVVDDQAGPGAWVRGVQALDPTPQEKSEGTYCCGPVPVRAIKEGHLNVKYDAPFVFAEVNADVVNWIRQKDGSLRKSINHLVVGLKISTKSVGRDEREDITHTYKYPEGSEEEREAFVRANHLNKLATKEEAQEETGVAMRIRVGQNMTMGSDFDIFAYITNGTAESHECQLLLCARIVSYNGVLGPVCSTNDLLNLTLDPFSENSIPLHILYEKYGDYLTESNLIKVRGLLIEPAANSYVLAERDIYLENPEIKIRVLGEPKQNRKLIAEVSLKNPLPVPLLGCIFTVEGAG
For `O=C(CCN(CCO)CCO)c1ccccn1`, the IC50 was 5100 nM. Work on `CC(C)(C)N(CCC(=O)c1ccc(C#N)cc1)Cc1ccccc1` yielded an IC50 of 1700 nM. In the case of `CC(C)(C)N(CCC(=O)c1cccs1)Cc1ccccc1`, the IC50 is reported as 440 nM. `CC(C)N(CCO)CCC(=O)c1cnccn1` gave an IC50 of 6900 nM. Work on `CC(C)N(CCO)CCC(=O)c1ccccn1` yielded an IC50 of 5400 nM. In the case of `O=C(CCN(CCO)Cc1ccccc1)c1ccncn1`, the IC50 is reported as 4900 nM. `CC(C)N(CCO)CCC(=O)c1cccs1` was tested, and the IC50 was 6500 nM. In the case of `CN(CCO)CCC(=O)c1ccco1`, the IC50 is reported as 1200 nM. Compound `CC(C)(C)N(CCC(=O)c1ccc(Cl)cc1)Cc1ccccc1` has an IC50 of 700 nM. `CCCCN(CCO)CCC(=O)c1ccc(Br)s1` showed an IC50 of 1400 nM. `CN(CCC(=O)c1ccsc1)Cc1ccccc1` showed an IC50 of 10000 nM. For `O=C(CCN(CCO)Cc1ccccc1)c1cccnc1`, the IC50 was 2300 nM. With `CC(C)N(CCC(=O)c1cc(Cl)sc1Cl)Cc1ccccc1` the IC50 was 980 nM. Compound `CN(CCC(=O)c1ccc2ccccc2c1)Cc1ccccc1` has an IC50 of 21000 nM. Compound `CC(C)(C)N(CCC(=O)c1nccs1)Cc1ccccc1` has an IC50 of 1400 nM. `O=C(CCN(CCO)Cc1ccccc1)c1ccsc1` was tested, and the IC50 was 12000 nM. `CN(CCC(=O)c1ccncc1)Cc1ccccc1` gave an IC50 of 2000 nM. For `O=C(CCN(CCO)Cc1ccccc1)c1ccccc1`, the IC50 was 11000 nM. Work on `CN(CCC(=O)c1ccccn1)Cc1ccccc1` yielded an IC50 of 17000 nM. Work on `CN(CCC(=O)c1cnccn1)Cc1ccccc1` yielded an IC50 of 1200 nM. Compound `CCCCN(CCO)CCC(=O)c1ccc(C)o1` has an IC50 of 800 nM. Compound `CC(C)N(CCC(=O)c1ccccn1)Cc1ccccc1` has an IC50 of 1100 nM. With `CCN(CCC(=O)c1ccc(Cl)s1)Cc1ccccc1` the IC50 was 420 nM. `CC(C)N(CCC(=O)c1ccc(Oc2ccccc2)cc1)Cc1ccccc1` was tested, and the IC50 was 12000 nM. In the case of `CC(C)N(CCO)CCC(=O)c1cccnc1`, the IC50 is reported as 7400 nM. For `CC(C)(C)N(CCC(=O)c1ccc(F)cc1)Cc1ccccc1`, the IC50 was 1100 nM. `CC(C)(C)N(CCO)CCC(=O)c1ccncc1` gave an IC50 of 11000 nM. Compound `CCN(CCC(=O)c1ccsc1)Cc1ccccc1` has an IC50 of 12000 nM. Work on `Cc1ccc(C(=O)CCN(CCO)C(C)C)o1` yielded an IC50 of 420 nM. With `CC(C)N(CCC(=O)c1ccco1)Cc1ccccc1` the IC50 was 320 nM. Work on `CC(C)N(CCC(=O)c1ccc(Br)s1)Cc1ccccc1` yielded an IC50 of 190 nM. `CN(CCC(=O)c1nccs1)Cc1ccccc1` was tested, and the IC50 was 4300 nM. Compound `O=C(CCN(CCO)Cc1ccccc1)c1csc(Cl)c1` has an IC50 of 2700 nM. `CCc1nccnc1C(=O)CCN(Cc1ccccc1)C(C)C` showed an IC50 of 920 nM. For `CC(C)N(CCO)CCC(=O)c1ccc2ccccc2c1`, the IC50 was 16000 nM. `O=C(CCN(CCO)Cc1ccccc1)c1ccncc1` was tested, and the IC50 was 2500 nM. `CCCCN(CCO)CCC(=O)c1ccncc1` gave an IC50 of 2500 nM. `CCc1nccnc1C(=O)CCN(CCO)C(C)C` showed an IC50 of 7700 nM. `O=C(CCN(CCO)CCO)c1ccco1` gave an IC50 of 360 nM. Compound `CCCCN(CCO)CCC(=O)c1ccc(Oc2ccccc2)cc1` has an IC50 of 7400 nM. With `O=C(CCN(CCO)CCO)c1cccs1` the IC50 was 8300 nM. With `CC(C)(C)N(CCO)CCC(=O)c1nccs1` the IC50 was 10000 nM. `CC(C)N(CCC(=O)c1ccccc1)Cc1ccccc1` showed an IC50 of 5600 nM. `CC(C)(C)N(CCC(=O)c1cccnc1)Cc1ccccc1` showed an IC50 of 470 nM. `CC(C)N(CCC(=O)c1ccc2c(Cl)cccc2c1)Cc1ccccc1` was tested, and the IC50 was 1700 nM. `CC(C)N(CCC(=O)c1ccc2ccccc2c1)Cc1ccccc1` showed an IC50 of 4000 nM. In the case of `CC(C)N(CCC(=O)c1ccsc1)Cc1ccccc1`, the IC50 is reported as 8600 nM. Work on `O=C(CCN(CCO)Cc1ccccc1)c1ccc(Cl)s1` yielded an IC50 of 1500 nM. `CCCCN(CCO)CCC(=O)c1ncc(C)s1` gave an IC50 of 2300 nM. `CC(C)N(CCO)CCC(=O)c1nccs1` gave an IC50 of 16000 nM. `CN(CCO)CCC(=O)c1ccsc1` was tested, and the IC50 was 14000 nM. With `CCN(CCC(=O)c1ccc(Br)s1)Cc1ccccc1` the IC50 was 610 nM. Compound `CC(C)(C)N(CCC(=O)c1ccccc1)Cc1ccccc1` has an IC50 of 1700 nM. `CN(CCC(=O)c1ccc(Cl)s1)Cc1ccccc1` gave an IC50 of 1000 nM. Compound `CC(C)N(CCO)CCC(=O)c1cc2ccccc2s1` has an IC50 of 9400 nM. For `Cc1ccc(C(=O)CCN(CCO)C(C)(C)C)o1`, the IC50 was 680 nM. `CCN(CCC(=O)c1ccco1)Cc1ccccc1` gave an IC50 of 550 nM. For `O=C(CCN(CCO)CCO)c1cnccn1`, the IC50 was 1200 nM. Work on `CCCCN(CCO)CCC(=O)c1ccc2c(Cl)cccc2c1` yielded an IC50 of 1900 nM. For `CC(C)N(CCC(=O)c1ccc(Cl)cc1)Cc1ccccc1`, the IC50 was 1400 nM. Compound `CCN(CCC(=O)c1ccccn1)Cc1ccccc1` has an IC50 of 2700 nM. Work on `CC(C)N(CCC(=O)c1ccc(F)cc1)Cc1ccccc1` yielded an IC50 of 10000 nM. `O=C(CCN(CCO)Cc1ccccc1)c1cnccn1` gave an IC50 of 1500 nM. For `O=C(CCN(CCO)CCO)c1ccc(Cl)s1`, the IC50 was 1900 nM. Compound `CCN(CCC(=O)c1cccnc1)Cc1ccccc1` has an IC50 of 1700 nM. `CC(C)(C)N(CCO)CCC(=O)c1ccco1` was tested, and the IC50 was 4500 nM. In the case of `Cc1ccc(C(=O)CCN(C)CCO)o1`, the IC50 is reported as 1400 nM. `CC(C)N(CCO)CCC(=O)c1ccco1` was tested, and the IC50 was 120 nM. `CC(C)N(CCO)CCC(=O)c1ccsc1` showed an IC50 of 11000 nM. `CC(C)(C)N(CCO)CCC(=O)c1ccc(C#N)cc1` showed an IC50 of 10000 nM. `Cc1ccc(C(=O)CCN(Cc2ccccc2)C(C)C)o1` showed an IC50 of 320 nM. With `O=C(CCN(CCO)Cc1ccccc1)c1ccc2c(Cl)cccc2c1` the IC50 was 1500 nM. For `CCc1nccnc1C(=O)CCN(Cc1ccccc1)C(C)(C)C`, the IC50 was 1700 nM. In the case of `O=C(CCN(CCO)Cc1ccccc1)c1ccco1`, the IC50 is reported as 1300 nM. In the case of `CN(CCO)CCC(=O)c1ccncc1`, the IC50 is reported as 7900 nM. With `Cc1cnc(C(=O)CCN(Cc2ccccc2)C(C)C)s1` the IC50 was 850 nM. `CC(C)N(CCO)CCC(=O)c1ccc(Cl)s1` was tested, and the IC50 was 5400 nM. For `CC(C)N(CCC(=O)c1ccncc1)Cc1ccccc1`, the IC50 was 830 nM. For `CC(C)N(CCO)CCC(=O)c1ccc(Cl)cc1`, the IC50 was 2200 nM. For `CCCCN(CCO)CCC(=O)c1ccco1`, the IC50 was 840 nM. `CCN(CCC(=O)c1cccs1)Cc1ccccc1` was tested, and the IC50 was 2100 nM. Work on `CC(C)N(CCC(=O)c1ccc(C#N)cc1)Cc1ccccc1` yielded an IC50 of 590 nM. In the case of `CN(CCO)CCC(=O)c1cnccn1`, the IC50 is reported as 9900 nM. With `Cc1ccc(C(=O)CCN(Cc2ccccc2)C(C)(C)C)o1` the IC50 was 2300 nM. Compound `O=C(CCN(CCO)CCO)c1ccsc1` has an IC50 of 13000 nM. In the case of `Cc1cnc(C(=O)CCN(C)Cc2ccccc2)s1`, the IC50 is reported as 1800 nM. `Cc1ccc(C(=O)CCN(CCO)Cc2ccccc2)o1` showed an IC50 of 6600 nM. Work on `CC(C)(C)N(CCO)CCC(=O)c1cccs1` yielded an IC50 of 6800 nM. `CCCCN(CCO)CCC(=O)c1cccnc1` was tested, and the IC50 was 2700 nM. Work on `CCN(CCC(=O)c1ccncc1)Cc1ccccc1` yielded an IC50 of 1400 nM. With `CC(C)(C)N(CCO)CCC(=O)c1cccnc1` the IC50 was 7800 nM. With `O=C(CCN(CCO)CCO)c1cccnc1` the IC50 was 3300 nM. `CN(CCO)CCC(=O)c1nccs1` was tested, and the IC50 was 4700 nM. Compound `Cc1ccc(C(=O)CCN(C)Cc2ccccc2)o1` has an IC50 of 4300 nM. With `CCCCN(CCO)CCC(=O)c1cnccn1` the IC50 was 1700 nM. In the case of `CCCCN(CCO)CCC(=O)c1ccsc1`, the IC50 is reported as 12000 nM. Work on `CN(CCO)CCC(=O)c1cccs1` yielded an IC50 of 4000 nM. In the case of `CC(C)(C)N(CCC(=O)c1ccc(Cl)s1)Cc1ccccc1`, the IC50 is reported as 100 nM. For `CC(C)(C)N(CCC(=O)c1ccsc1)Cc1ccccc1`, the IC50 was 11000 nM. Compound `CC(C)N(CCC(=O)c1cc2ccccc2s1)Cc1ccccc1` has an IC50 of 770 nM. For `CC(C)N(CCC(=O)c1nccs1)Cc1ccccc1`, the IC50 was 3200 nM. `CC(C)N(CCO)CCC(=O)c1ccncc1` was tested, and the IC50 was 4800 nM. With `CCN(CCC(=O)c1nccs1)Cc1ccccc1` the IC50 was 2600 nM. `CC(C)N(CCC(=O)c1cccnc1)Cc1ccccc1` gave an IC50 of 830 nM. In the case of `CC(C)N(CCO)CCC(=O)c1ccc(C#N)cc1`, the IC50 is reported as 6100 nM. Compound `O=C(CCN(CCO)CCO)c1nccs1` has an IC50 of 6900 nM.
